Measured values: patent US20040097529A1, “Novel use of arylethene sulfonamide derivative” (priority 2001, published 2004)
Where a name gives a salt, the structure may show the parent alone. Read-outs that look alike come from different tables or passages of the source. Bridge positions count the residues as written; N and C are the ends. Ends that are not written are not given here.

How the values were obtained:
[1] = test system: diabetic rats induced by streptozotocin (STZ); experiment: Effect on the blood parameter and urinary parameter in diabetic rats induced by streptozotocin (STZ); assay type: in vivo, Wistar (Crj) rats; details: for Blood glucose level: enalapril maleate 10 mg/kg p.o. once a day
Procedure: Wistar (Crj) rats of 9 weeks of age were divided into 5 groups so that there was no bias in urinary albumin excretion. To the 4 groups of the rats was administered intravenously STZ (50 mg/kg). […] After the lapse of 2, 4 and 6 weeks from the start of administration, urine was collected for 24 hours in a metabolic cage to measure a urinary parameter. The blood was collected from the tail vein after 2 and 4 weeks and from the abdominal aorta under anesthesia after 6 weeks to measure a blood parameter.
(§1) The results were indicated by the mean±error. In comparison between the Sham group and the STZ-Cont. group, a t-test was made without correspondence, and when the significant level is less than 5%, it is considered as a significant difference. In comparison between the STZ-dose groups of rats, multiple comparison (Dunnett's test) was made respectively without correspondence following the variance analysis of one-way classification. When the significant level is less than 5%, it is considered as a significant difference.

[2] = test system: chronic renal failure (5/6Nx) rats; details: for Systolic blood pressure: tail-cuff
Procedure: Male Wistar rats of 8 weeks of age were used in the experiment. A Rat was anesthetized with petobarbital and ⅔ of the left kidney was cut off, and one week after the right kidney was removed completely. Two weeks after the ⅚ nephrectomy, systolic blood pressure (SBP) was measured by a tail-cuff method, and the urine was collected in a metabolic cage for 24 hours to measure the urinary protein excretion. Rats were divided into 3 groups (each group: n=9) so that no difference occurred between the respective groups. Thereafter, a solvent (0.5% MC) was orally administered to the ⅚Nx-Cont. group at a dose of 5 ml/kg over 8 weeks. […] Similarly, to the ⅚Nx-Ena. group was administered 10 mg/kg/day of enalapril maleate dissolved in a solvent (0.5% MC). On the other hand, the solvent (0.5% MC) alone was orally administered to the abdominal-sectioned rats as a control group (Sham). Every 2 weeks, the urine was collected for 24 hours to measure the urinary protein excretion. Additionally, every 4 weeks, SBP was measured to examine the effect on the blood pressure.
as §1, with “⅚Nx-Cont.” for “STZ-Cont.”, “⅚Nx rat-drug groups,” for “STZ-dose groups of rats,”

[3] = test system: STZ-induced diabetic rats; details: cited from earlier work
[4] = test system: rat's cultured mesangial cells; experiment: Effect of ET on the growth and hypertrophy of rat's cultured mesangial cells; assay type: cell-based; details: for growth and hypertrophy of rat's cultured mesangial cells: depending on the concentration of 10^−12 to 10^−7M; for concentration of the maximum reaction (growth and hypertrophy): rat's cultured mesangial cells
Procedure: In measurement of the hypertrophy activity, the cells used in the measurement of the cell growth activity using an Alamar Blue reagent were washed 3 times with a phosphate buffer, to which cells was added a direct protein-determining reagent (BioRad) to measure the absorbance at 595 nm. The protein content was calculated from the analytical curve. The protein content per the unit cell number was given as the hypertrophy activity from the cell number obtained by measurement of the growth activity.
The results were indicated by the mean±error.

[5] = enalapril maleate 10 mg/kg p.o.
[6] = enalapril maleate 10 mg/kg p.o., 4 weeks
[7] = 5/6Nx rats, enalapril maleate 10 mg/kg/day p.o., 0 week
[8] = 5/6Nx rats, enalapril maleate 10 mg/kg/day p.o., 4 weeks
[9] = 5/6Nx rats, enalapril maleate 10 mg/kg/day p.o., 8 weeks
[10] = continuously injected intraperitoneally

With `CCOC(=O)[C@H](CCc1ccccc1)N[C@@H](C)C(=O)N1CCC[C@H]1C(=O)O` [Ena., enalapril maleate] the “inhibition of elevation of creatinine clearance (Ccr)” value [1, 5] was “there was no tendency that elevation of Ccr was inhibited”, the “urinary albumin excretion (UAE) change” value [1, 5] was “no UAE reduction was observed” and the Blood glucose level ([1]; 2 weeks) was 403.0 ± 13.0 mg/dL. For the same molecule, the Blood glucose level ([1]; 4 weeks) was 393.2 ± 17.6 mg/dL, the Blood glucose level ([1]; 6 weeks) was 394.3 ± 9.6 mg/dL and the Urinary albumin excretion ([1]; enalapril maleate 10 mg/kg p.o., 0 week) was 0.46 ± 0.04 mg/day. The Urinary albumin excretion ([1]; enalapril maleate 10 mg/kg p.o., 2 weeks) was 0.91 ± 0.13 mg/day, the Blood cholesterol level [1, 6] was 148.8 ± 11.2 mg/dL and the Urinary albumin excretion [1, 6] was 0.65 ± 0.14 mg/day. For the same molecule, the blood triglyceride level [1, 6] was 407.0 ± 35.7 mg/dL, the Urinary albumin excretion ([1]; enalapril maleate 10 mg/kg p.o., 6 weeks) was 1.27 ± 0.18 mg/day and the “hypotensive effect (SBP)” value ([2]; 5/6Nx rats, enalapril maleate 10 mg/kg/day p.o.) was “a hypotensive effect was markedly recognized”. It also gave a Urinary protein excretion [2, 7] of 36.9 ± 4.7 mg/day, a Systolic blood pressure [2, 7] of 136 ± 4 mmHg and a Urinary protein excretion ([2]; 5/6Nx rats, enalapril maleate 10 mg/kg/day p.o., 2 weeks) of 45.5 ± 10.5 mg/day. For the same molecule, the Urinary protein excretion [2, 8] was 78.4 ± 15.3 mg/day, the Systolic blood pressure [2, 8] was 129 ± 8 mmHg and the Urinary protein excretion ([2]; 5/6Nx rats, enalapril maleate 10 mg/kg/day p.o., 6 weeks) was 165.1 ± 28.1 mg/day. For the same molecule, the Urinary protein excretion [2, 9] was 261.2 ± 43.2 mg/day, the Systolic blood pressure [2, 9] was 124 ± 6 mmHg and the “death cases (mortality in renal dysfunction cases)” value (“death cases” below) ([2]; 5/6Nx rats, enalapril maleate 10 mg/kg/day p.o., 9 cases per group) was 2. The “death cases” value ([2]; 5/6Nx rats, enalapril maleate 10 mg/kg/day p.o., 9 cases per group, listed as enalapril) was “two death cases”.
For `COc1ccccc1Oc1c(NS(=O)(=O)c2ccc(C(C)(C)C)cc2)nc(-c2ncccn2)nc1OCCO` [bosentan], the plasma glucose level [3] is listed as “do not change the plasma glucose level”.
With “ET-3: Endothelin iso-peptide, endogenous physiologically active peptide consisting of 21 amino acids (CTCFTYKDKECVYYCHLDIIW; disulfide 1-15, 3-11; ends not checked; UniProt P14138 97-117, looked up)” the “growth and hypertrophy of rat's cultured mesangial cells” value [4] was “promoted the growth and hypertrophy” and the “concentration of the maximum reaction (growth and hypertrophy)” value [4] was 10^−8 M.
With “ET-1: Endothelin iso-peptide, endogenous physiologically active peptide consisting of 21 amino acids (CSCSSLMDKECVYFCHLDIIW; disulfide 1-15, 3-11; ends not checked; UniProt P05305 53-73, looked up)” the “growth and hypertrophy of rat's cultured mesangial cells” value [4] was “promoted the growth and hypertrophy” and the “concentration of the maximum reaction (growth and hypertrophy)” value [4] was 10^−8 M.
For `COc1cc(OC)nc(O[C@H](C(=O)O)C(OC)(c2ccccc2)c2ccccc2)n1` [darusentan], the blood triglyceride level ([3]; 100 mg/kg, p.o., decreased only in comparison with control group) is listed as “decreases the blood triglyceride level”, the Blood glucose level ([3]; 100 mg/kg, p.o.) is listed as “does not change the blood glucose level” and the microalbuminuria ([3]; 100 mg/kg/day for 160 days) is listed as “has a tendency to reduce microalbuminuria”.
For FR139317, the plasma glucose level [3] is given as “do not change the plasma glucose level”, the excretion of microalbuminuria [3, 10] is given as “reduces excretion of microalbuminuria” and the “gene expression of the extracellular matrix of the glomerulus” value [3, 10] is given as “inhibits gene expression of the extracellular matrix of the glomerulus”.
In the case of `COc1ccccc1Oc1c(NS(=O)(=O)C=Cc2ccccc2)nc(-c2ncccn2)nc1OC` [Compound 1, N-[6-Methoxy-5-(2-methoxyphenoxy)-2-(pyrimidin-2-yl)pyrimidin-4-yl]-2-phenylethenesulfonamide], the “death cases” value ([2]; rat, in vivo, po, 1 mg/kg/day) is reported as “no death was observed”.
